From patent US6107316A, “Method for treating protozoal infections” (priority 1998, dated 2000) come the findings set out here.

The nature of data set [1]: toxicity towards MDBKF5D2 host cells (MTS). The following applies: bovine, mdbkf5d2 cells, Cytotoxicity (percent toxicity).
Data set [2] concerns Encephalitozoon (Septata) intestinalis. Briefly: growth inhibitory activity against E. intestinalis grown on Vero cells (spore count). Format: cell-based. The conditions noted are these: 336 h, 1.0 μg/ml, spore number after 2 weeks, read-out: Growth (% of control). Here is the method:
Compounds 2, 10 and 15 were tested for i,7 vitro growth inhibitory activity against E. intestinalis, grown on African green monkey kidney cells (Vero cells). Vero cells were grown in 25-cm^2 culture flasks at 37° C. in a humidified 5% carbon dioxide incubator. Cultures were maintained in minimal essential medium (Gibco BRL, Gaithersburg, Md., U.S.A.), supplemented with L-glutamine, Earle's salts, 5% heat-inactivated foetal calf serum (Hyclone Labs, Inc., U.S.A.), fungizone (2 μg/ml, Gibco BRL) and gentamicin (50 μg/ml, Gibco BRL). E. intestinalis spores were collected from the supernatant of an infected Vero cell culture and were used to infect normal cells to produce a fresh spore preparation for growth inhibition tests.
Growth inhibition tests were performed in 24-well culture plates. One ml of Vero cells (5×10^4 cells per ml) was placed in each well and the cells incubated for 12-15 hours at 37° C. The supernatant medium was then removed and replaced with 1 ml of medium containing 1.5-2.0×10^4 E. intestinalis spores per ml along with 1 μl of test compound dissolved in dimethylsulfoxide (DMSO) or DMSO alone for the control treatments without test compound. The plates were incubated at 37° C. and the medium was changed every 72 h along with fresh test compound in DMSO or DMSO alone (controls). After 2 weeks the supernatant was transferred from each well to a microcentiifuge tube, then concentrated by centrifugation with resuspension of the resulting E. intestinalis spore pellet in 300-500 μl fresh medium. The spore number in each sample was then determined by counting in a hemocytometer. The results in Table 11 show the effects of the test compounds on the number of spores and are expressed as a percentage of the spore number in the control treatment without test compound.

On to `CCC(C)(NC(=O)c1cc(Cl)c(F)c(Cl)c1)C(=O)CCl` (stereo not drawn) [Compound 9], for which, in data set [1], the cytotoxicity at 48 h, 0.1 µM came out at 6.7%; the cytotoxicity at 48 h, 1 µM came to 0%; the cytotoxicity at 48 h, 10 µM was 0%; the cytotoxicity at 48 h, 100 µM was determined as 81.4%.

With `CCC(C)(NC(=O)c1cc(Cl)c(N)c(Cl)c1)C(=O)CCl` (stereo not drawn) [Compound 1], in data set [1], the cytotoxicity at 48 h, 0.1 µM was determined as 0%; the cytotoxicity at 48 h, 1 µM is 0%; the cytotoxicity at 48 h, 10 µM is 19.9%; the cytotoxicity at 48 h, 100 µM was found to be 35.7%.

Turning to `CCC(C)(NC(=O)c1cc(Cl)c(C)c(Cl)c1)C(=O)CCl` (stereo not drawn) [Compound 10], in data set [2], the activity at 1 µg/mL came to 20%.
